Data published in publication PMC4879785, “GintAMT3 – a Low-Affinity Ammonium Transporter of the Arbuscular Mycorrhizal Rhizophagus irregularis” (Frontiers in Plant Science, 2016).

How the values were obtained:
[1] = target: T1, GintAMT2 (Rhizophagus intraradices, UniProt F8K9Q4); conditions: starting ammonium printed as 1 mM and 2 mM (Figure 5 legend)
T1 construct: gene amt2

[2] = target: T2, GintAMT1 (Rhizophagus intraradices, UniProt A2Q6J0); conditions: starting ammonium printed as 1 mM and 2 mM (Figure 5 legend)
T2 construct: gene AMT1
T2 sequence (A2Q6J0 1-479): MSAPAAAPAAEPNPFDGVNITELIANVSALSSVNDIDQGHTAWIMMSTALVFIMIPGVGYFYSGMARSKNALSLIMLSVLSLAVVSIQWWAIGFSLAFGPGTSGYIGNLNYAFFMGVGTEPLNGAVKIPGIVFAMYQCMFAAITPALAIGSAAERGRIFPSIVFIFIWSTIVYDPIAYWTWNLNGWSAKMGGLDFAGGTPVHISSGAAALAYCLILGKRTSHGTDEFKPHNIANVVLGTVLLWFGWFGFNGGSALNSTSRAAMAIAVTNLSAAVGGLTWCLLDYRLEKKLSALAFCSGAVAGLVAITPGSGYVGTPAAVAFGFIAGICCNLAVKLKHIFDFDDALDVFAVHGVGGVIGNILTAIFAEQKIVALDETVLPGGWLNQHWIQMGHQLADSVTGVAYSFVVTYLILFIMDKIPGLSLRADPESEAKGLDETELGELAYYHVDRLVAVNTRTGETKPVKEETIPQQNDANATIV

[3] = substrate: CN; experiment: cells, lysate or membranes; assay type: cell-based, Rhizophagus irregularis; conditions: pH 5, 50 mM KH2PO4, 20 mM glucose, 30 °C, labelled compound, 0-15 mM substrate, Hanes-Woolf plot

T1 sequence (F8K9Q4 1-470): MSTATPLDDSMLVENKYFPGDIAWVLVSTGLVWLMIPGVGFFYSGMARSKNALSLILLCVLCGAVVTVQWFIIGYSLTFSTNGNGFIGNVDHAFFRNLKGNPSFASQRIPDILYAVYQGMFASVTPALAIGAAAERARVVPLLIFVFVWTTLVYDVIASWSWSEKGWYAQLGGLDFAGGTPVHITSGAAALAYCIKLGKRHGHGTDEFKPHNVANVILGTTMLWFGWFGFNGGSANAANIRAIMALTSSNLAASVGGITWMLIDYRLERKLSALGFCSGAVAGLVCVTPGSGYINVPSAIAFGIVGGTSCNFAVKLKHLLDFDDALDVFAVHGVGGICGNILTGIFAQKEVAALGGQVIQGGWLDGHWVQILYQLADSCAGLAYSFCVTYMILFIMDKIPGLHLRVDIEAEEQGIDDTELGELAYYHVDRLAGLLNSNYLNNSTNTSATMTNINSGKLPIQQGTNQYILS

For `N` [ammonium], the “ammonium removal from medium by yeast” value [1] was “GintAMT2 and GintAMT3 expressing cells imported ammonium at a slower rate” and the “ammonium removal from medium by yeast” value [2] was “Yeast cells expressing ScMEP1 and GintAMT1 took up ammonium quite rapidly”.

B1: GintAMT3 (Rhizophagus irregularis) (protein)
chain: MSETSQPSQFKEGDIAWMLTSTAFVWLMIPGVGYFYSGMARSKNALSLILFCFLCVPVVAMQWFIWGYSLSFSRTGGLFIGNLRNAFFMNVRGEPTLKAESLPEIVHAIYQGMFAAITPSLAIGAAAERARMLPLLVFIFVWSTLVYDVIACWIWSANGWFKTIEGLDFAGGTPVHIASGAAALAYCVVLGKRHGHGRDEFKPHNNVNVILGTVFLWFGWFGFNGGSAFGANTRAAMAIMVTNTAASFGGLAWMLMDYRLERKFSALGFCSGAVAGLVCITPASGYVSPPVSVLFGITGGIACNLAVKLKHILDFDDALDVFAVHAVGGVAGNTLLGIFADKEMAALNGEIIHGGAIDGHSVQLGYQIASSIAGLTYSFCISALILYVMDRIPCLKLRMEPDEEEIGTDETELGEPAYYFLDRVVASIQVQIASKTMSSPQQTQLQSIDHIHYS
For B1, the Km [3] was 1800 µM.
